Experimental findings from ChEMBL document CHEMBL1151989, “Antineoplastic agents. 578. Synthesis of stilstatins 1 and 2 and their water-soluble prodrugs” (J Nat Prod, 2009) are described below.

In brackets after ≈: the same amount, converted by molar mass. Bounds are passed on as bounds.

One data set concerns SF-268. Nature of the data set: Antitumor activity against human SF268 cells by sulforhodamine B assay. In kind it is functional.
In a further data set the test system is MCF7. Nature of the data set: Antitumor activity against human MCF7 cells by sulforhodamine B assay. In kind it is functional. A general note: In SRB staining, fixed cells bind dye roughly in proportion to their protein.
The test system of another data set is P388. As to the kind of experiment: In vitro growth inhibition against mouse P388 cells.
Another data set has as its system BXPC-3. Nature of the data set: Antitumor activity against human BxPC3 cells by sulforhodamine B assay. Format: functional.
Another data set deals with KM-20L2. Nature of the data set: Antitumor activity against human KM20L2 cells by sulforhodamine B assay. In kind it is functional.
A further data set deals with NCI-H460. As to the kind of experiment: Antitumor activity against human NCI-H460 cells by sulforhodamine B assay. In kind it is functional.
A further data set relates to DU-145. Nature of the data set: Antitumor activity against human DU145 cells by sulforhodamine B assay. In kind it is functional.
The next data set deals with SW-1736. As to the kind of experiment: Antitumor activity against human SW1736 cells by sulforhodamine B assay. In kind it is functional.
A short description of data set [1]: (§1) Antitumor activity against human KAT4 cells by sulforhodamine B assay. In kind it is functional. The following applies: KAT-4.
The subject of the next data set is KAT-4. The data set is described as §1. Format: functional.
The nature of data set [2]: Aqueous solubility of compound in water. In kind it is physicochemical.

As to `COc1cc(/C=C\c2ccc(OC)c(OP(=O)([O-])[O-])c2OP(=O)([O-])[O-])cc2c1OCO2.[Na+].[Na+].[Na+].[Na+]`, the GI50 (as a rule, the concentration giving 50% growth inhibition) in the data set with SF-268 was 2.8 µg/mL; in the data set on MCF7, 3.4 µg/mL; in the data set with BXPC-3 it was more than 10 µg/mL; with KM-20L2, more than 10 µg/mL; in the data set on NCI-H460, 2.8 µg/mL; with DU-145 it was 2.5 µg/mL. In the data set with P388, this molecule returned an ED50 of 1.4 µg/mL.
For `COc1ccc(/C=C\c2cc(O)c(OC)c(OC)c2)c(O)c1O` [STILSTATIN 2], the GI50 with SF-268 stood at 1.6 µg/mL (≈ 5.03 µM); in the data set on MCF7, 1.6 µg/mL (≈ 5.03 µM); in the data set on BXPC-3 it was 1.8 µg/mL (≈ 5.65 µM); in the data set with KM-20L2 it was 1.9 µg/mL (≈ 5.97 µM); in the data set on NCI-H460, 1.5 µg/mL (≈ 4.71 µM); in the data set with DU-145 it was 1.8 µg/mL (≈ 5.65 µM). In the data set with P388, the ED50 is 1.7 µg/mL (≈ 5.34 µM).
For `COc1cc(/C=C\c2ccc(OC)c(OP(=O)([O-])[O-])c2OP(=O)([O-])[O-])cc2c1OCO2.[Li+].[Li+].[Li+].[Li+]`, the GI50 with SF-268 was 2.4 µg/mL; in the data set with MCF7 it was 1.2 µg/mL; in the data set with BXPC-3 it was more than 10 µg/mL; in the data set on KM-20L2, more than 10 µg/mL; in the data set on NCI-H460, 2.7 µg/mL; in the data set on DU-145, 2.1 µg/mL. In the data set with P388, this molecule showed an ED50 of 0.3 µg/mL.
Regarding `COc1ccc(/C=C\c2cc(OC)c3c(c2)OCO3)cc1OP(=O)([O-])[O-].[Na+].[Na+]`, the GI50 with MCF7 came to 0.045 µg/mL; with BXPC-3 it was 2.1 µg/mL; with KM-20L2, 3.8 µg/mL; in the data set with NCI-H460, 0.41 µg/mL; in the data set with DU-145, 0.053 µg/mL. This molecule displayed an ED50 with P388 of 0.025 µg/mL.
For the molecule `COc1ccc(/C=C\c2cc(OC)c(OC)c(OC)c2)cc1O` [COMBRETASTATIN A4], in the data set with P388, the ED50 worked out at 0.0009 µg/mL (≈ 0.00284 µM). For the same molecule, the GI50 in the data set with BXPC-3 turned out to be 0.39 µg/mL (≈ 1.23 µM); in the data set on KM-20L2, 0.34 µg/mL (≈ 1.07 µM); with NCI-H460, 0.0006 µg/mL (≈ 0.0019 µM); in the data set with DU-145, 0.0008 µg/mL (≈ 0.00253 µM).
Regarding `COc1cc(/C=C\c2ccc(OC)c(OP(=O)([O-])[O-])c2OP(=O)([O-])[O-])cc2c1OCO2.[K+].[K+].[K+].[K+]`, the GI50 in the data set on SF-268 was 0.65 µg/mL; in the data set with MCF7 it was 0.39 µg/mL; in the data set on SW-1736 it was more than 10 µg/mL; with BXPC-3, 5.3 µg/mL; in the data set with KM-20L2, more than 10 µg/mL; in the data set with NCI-H460, 1.4 µg/mL. Moreover, the GI50 in data set [1] came to 9.6 µg/mL; with DU-145, 0.93 µg/mL. In the data set on P388, this molecule registered an ED50 of 0.17 µg/mL.
As for `COc1ccc(/C=C\c2cc(OC)c(OC)c(OC)c2)c(O)c1O` [COMBRETASTATIN A-1], the ED50 with P388 was determined as 0.3 µg/mL (≈ 0.903 µM). In addition, the GI50 with BXPC-3 was determined as 4.4 µg/mL (≈ 13.2 µM); with NCI-H460, 0.74 µg/mL (≈ 2.23 µM); in the data set with DU-145, 0.17 µg/mL (≈ 0.512 µM).
For the molecule “Manganese Stilstatin 2 2',3,3'-O-Triphosphate”, the GI50 in the data set on SF-268 is 3.6 µg/mL; with MCF7 it was more than 10 µg/mL; in the data set on SW-1736, 1.7 µg/mL; with BXPC-3, more than 10 µg/mL; in the data set with KM-20L2 it was more than 10 µg/mL; in the data set with NCI-H460, 0.51 µg/mL. For the same molecule, the GI50 in the data set on KAT-4 and with DU-145 was more than 10 µg/mL throughout.
For the molecule `COc1cc(/C=C\c2ccc(OC)c(OP(=O)([O-])[O-])c2OP(=O)([O-])[O-])cc(OC)c1OC.[Na+].[Na+].[Na+].[Na+]`, in the data set on P388, the ED50 is 0.3 µg/mL. The concentration for 50% growth inhibition (GI50) was more than 10 µg/mL with BXPC-3, more than 10 µg/mL in the data set with KM-20L2, 3.3 µg/mL with NCI-H460 and 2.7 µg/mL with DU-145.
In the case of `COc1cc(/C=C\c2ccc(OC)c(OP(=O)([O-])[O-])c2OP(=O)([O-])[O-])cc(OP(=O)([O-])[O-])c1OC.[Na+].[Na+].[Na+].[Na+].[Na+].[Na+]`, the GI50 amounted to 0.34 µg/mL with SF-268; 0.3 µg/mL in the data set on MCF7; 1.2 µg/mL in the data set with BXPC-3; 3.1 µg/mL with KM-20L2; 0.3 µg/mL in the data set on NCI-H460; 0.26 µg/mL with DU-145. In the data set with P388, this molecule showed an ED50 of 0.14 µg/mL.
Take `COc1cc(/C=C\c2ccc(OC)c(O[Si](C)(C)C(C)(C)C)c2O[Si](C)(C)C(C)(C)C)cc2c1OCO2`: the GI50 in the data set with SF-268, with MCF7, in the data set with BXPC-3, with KM-20L2, in the data set with NCI-H460 and with DU-145 was more than 10 µg/mL in each case. The molecule further registered an ED50 in the data set on P388 of more than 10 µg/mL.
`COc1cc(/C=C\c2ccc(OC)c(OP(=O)([O-])[O-])c2OP(=O)([O-])[O-])cc(OP(=O)([O-])[O-])c1OC.[Mg+2].[Mg+2].[Mg+2]`: the GI50 was 0.63 µg/mL in the data set on SF-268; 0.5 µg/mL with MCF7; more than 10 µg/mL in the data set with SW-1736; 5.9 µg/mL with BXPC-3; less than 10 µg/mL in the data set on KM-20L2; 0.32 µg/mL in the data set with NCI-H460. Moreover, the GI50 is 4.7 µg/mL in [1] and 0.42 µg/mL in the data set with DU-145. This molecule gave an ED50 with P388 of 0.064 µg/mL.
For the molecule `COc1cc(/C=C\c2ccc(OC)c(OP(=O)([O-])[O-])c2OP(=O)([O-])[O-])cc(OP(=O)([O-])[O-])c1OC.[Rb+].[Rb+].[Rb+].[Rb+].[Rb+].[Rb+]`, the GI50 is 4.3 µg/mL with SF-268; 3.9 µg/mL with MCF7; more than 10 µg/mL in the data set on BXPC-3; more than 10 µg/mL in the data set with KM-20L2; 3.3 µg/mL in the data set with NCI-H460; 3.9 µg/mL with DU-145. In addition, in the data set with P388, the ED50 is 0.26 µg/mL.
`COc1cc(/C=C\c2ccc(OC)c(OP(=O)([O-])[O-])c2OP(=O)([O-])[O-])cc(OP(=O)([O-])[O-])c1OC.[Li+].[Li+].[Li+].[Li+].[Li+].[Li+]`: the GI50 amounted to 0.76 µg/mL in the data set on SF-268; 0.36 µg/mL in the data set with MCF7; 5.8 µg/mL with BXPC-3; 6.1 µg/mL with KM-20L2; 0.35 µg/mL with NCI-H460; 0.82 µg/mL with DU-145. The molecule further had an ED50 in the data set on P388 of 0.028 µg/mL.
`COc1cc(/C=C\c2ccc(OC)c(O[Si](C)(C)C(C)(C)C)c2O[Si](C)(C)C(C)(C)C)cc(O[Si](C)(C)C(C)(C)C)c1OC`: the GI50 in the data set with SF-268, with MCF7, in the data set with BXPC-3, with KM-20L2, with NCI-H460 and in the data set with DU-145 was more than 10 µg/mL each time. This molecule also showed an ED50 with P388 of more than 100 µg/mL.
`COc1cc(/C=C\c2ccc(OC)c(OP(=O)([O-])[O-])c2OP(=O)([O-])[O-])cc(OP(=O)([O-])[O-])c1OC.[Ca+2].[Ca+2].[Ca+2]`: the GI50 in the data set with SF-268 is 0.46 µg/mL; in the data set with MCF7, 0.38 µg/mL; in the data set with BXPC-3, 3.6 µg/mL; in the data set on KM-20L2, 5.2 µg/mL; in the data set on NCI-H460, 0.35 µg/mL; in the data set with DU-145, 0.37 µg/mL. Besides, in the data set with P388, the ED50 worked out at 0.14 µg/mL.
Consider `COc1ccc(/C=C\c2cc(OC)c(OC)c(OC)c2)cc1OP(=O)([O-])[O-].[Na+].[Na+]` [FOSBRETABULIN DISODIUM], for which the ED50 in the data set on P388 came to 0.0029 µg/mL. Also, the values for the GI50 in the data set with BXPC-3, in the data set with NCI-H460 and with DU-145 were 0.23 µg/mL, 0.0004 µg/mL and 0.0007 µg/mL, respectively. Besides, the solubility – broadly, how much of the substance goes into solution per volume – in [2] worked out at 20 mg/mL.
Turning to `COc1ccc(/C=C\c2cc(OC)c3c(c2)OCO3)cc1O` [Combretastatin A-2], the GI50 came to 0.0042 µg/mL (≈ 0.014 µM) in the data set on MCF7; 0.014 µg/mL (≈ 0.0466 µM) in the data set on BXPC-3; 0.47 µg/mL (≈ 1.57 µM) with KM-20L2; 0.043 µg/mL (≈ 0.143 µM) in the data set with NCI-H460; 0.0054 µg/mL (≈ 0.018 µM) in the data set with DU-145. In the data set on P388, this molecule had an ED50 of 0.016 µg/mL (≈ 0.0533 µM).
With `COc1cc(/C=C\c2ccc(OC)c(OP(=O)([O-])[O-])c2OP(=O)([O-])[O-])cc(OP(=O)([O-])[O-])c1OC.[K+].[K+].[K+].[K+].[K+].[K+]`, the GI50 in the data set on SF-268 is 0.3 µg/mL; in the data set on MCF7 it was 0.15 µg/mL; in the data set with BXPC-3 it was 0.75 µg/mL; with KM-20L2 it was 2.9 µg/mL; in the data set with NCI-H460 it was 0.3 µg/mL; in the data set with DU-145 it was 0.22 µg/mL. Besides, in the data set on P388, the ED50 worked out at 0.12 µg/mL.
For the molecule `COc1cc(/C=C\c2ccc(OC)c(OP(=O)([O-])[O-])c2OP(=O)([O-])[O-])cc(OP(=O)([O-])[O-])c1OC.[Zn+2].[Zn+2].[Zn+2]`, the GI50 with SF-268 was 4.5 µg/mL; with MCF7, 3.5 µg/mL; with SW-1736 it was 1.3 µg/mL; in the data set with BXPC-3, more than 10 µg/mL; in the data set with KM-20L2, more than 10 µg/mL; in the data set on NCI-H460 it was 3.5 µg/mL. The GI50 in [1] is more than 10 µg/mL; in the data set with DU-145 it was 4.6 µg/mL. This molecule also gave an ED50 in the data set with P388 of 0.15 µg/mL.
